In article PMC4386948, “Artemether-lumefantrine co-administration with antiretrovirals: population pharmacokinetics and dosing implications” (British Journal of Clinical Pharmacology, 2014):
Where two headings read alike, the source gives them in different places.

How the values were obtained:
[1] = Population pharmacokinetics of lumefantrine/desbutyl-lumefantrine alone and with efavirenz, nevirapine or lopinavir/ritonavir (non-linear mixed effects modelling of plasma concentrations); assay type: in vivo, human; conditions: for CL/F, apparent elimination clearance, population estimate [RSE %]: parent fully converted to metabolite; for LOPCL/F, effect on elimination clearance by concomitant treatment with lopinavir/ritonavir: concomitant lopinavir/ritonavir 400/100 mg; for LOPCL/F, effect on elimination clearance by concomitant treatment with lopinavir/ritonavir / EFZCL/F, effect on elimination clearance by concomitant treatment with efavirenz: positive = increase; for EFZCL/F, effect on elimination clearance by concomitant treatment with efavirenz: concomitant efavirenz 600 mg
Excerpt: Study 1 was a parallel group study in HIV-infected patients. Inclusion criteria were age >18 years, informed written consent and a confirmed HIV diagnosis. Exclusion criteria were anaemia (haemoglobin levels below 8 g dl^–1), viral loads above 400 counts ml^−1, malaria parasitaemia, abnormal liver or renal function, pregnancy, the use of substances which inhibit or induce CYP enzymes or P-glycoprotein, use of herbal medicines, prolonged QT interval, or any intercurrent illness. Ethics approval was received from the Uganda National HIV/AIDS Research Committee (ARC 056) and the Uganda National Council of Science and Technology (HS 195) and the study was registered with http://ClinicalTrials.gov (NCT 00619944).
Study 2 was a three period, crossover study in HIV-infected patients. Inclusion and exclusion criteria were the same as for study 1 (i.e. age >18 years, informed written consent and a confirmed HIV diagnosis) except that there were no restrictions based on viral load, and patients with hypersensitivity to artemisinins, lumefantrine or halofantrine or any history of cardiac disease were excluded from the study. Ethics approval was received from the Uganda National HIV/AIDS Research Committee (ARC 059) and from the Uganda National Council of Science and Technology (HS 196). The study was registered at http://ClinicalTrials.gov (NCT00620438).
Patients in the first arm were treated with 400/100 mg of lopinavir/ritonavir (Aluvia®, Abbott Laboratories, Abbott Park, Illinois, USA) and two nucleoside reverse transcriptase inhibitors (zidovudine and didanosine or tenofovir and emtricitabine, regional non-controlled procurement). The drugs were taken twice daily for at least 1 month before the start of the study. Patients in the second arm had not yet started their HIV therapy. At the initiation of the study all patients received a single dose of 80 mg artemether and 480 mg lumefantrine (four tablets) (Coartem®, Novartis Pharma AG, Basel, Switzerland; Batch number: F0660). Venous plasma samples were drawn at 1, 2, 4, 6, 8, 12, 24, 48 and 72 h post-dose.
At the start of the study, all patients received a standard treatment of artemether and lumefantrine (80/480 mg twice daily for 3 days; Coartem®). Plasma samples were collected after the last dose at 1, 2, 4, 8, 12, 24, 48, 72, 96 and 120 h post-dosing. After 1 week of wash-out, patients started HIV treatment with either nevirapine (200 mg) or efavirenz (600 mg) combined with the nucleoside reverse transcriptase inhibitors zidovudine and lamivudine. Patients received HIV treatment alone for 1 month and then were given a standard six dose treatment of artemether and lumefantrine concomitantly. Plasma samples were again collected after the last artemether-lumefantrine dose.
Artemether/dihydroartemisinin and lumefantrine were quantified in plasma samples according to previously published methods. Artemether and dihydroartemisinin were measured using solid phase extraction and liquid chromatography coupled with tandem mass spectrometric detection. […] Lumefantrine was measured using solid phase extraction followed by liquid chromatography with ultraviolet detection.
Desbutyl-lumefantrine was measured using liquid chromatography (Model 1200 system, Agilent Technologies) coupled with tandem mass spectrometric detection (API5000 triple-quadrupole system, AB Sciex). Desbutyl-lumefantrine and its analogue internal standard (C28H28CL3NO [39]) were extracted from plasma samples (100 μl) by protein precipitation followed by phospholipid removal (Hybrid SPE-Precipitation 96-wellplate, 575656-U, Supelco).

[2] = cited from earlier work
[3] = Population pharmacokinetics of artemether/dihydroartemisinin alone and with efavirenz, nevirapine or lopinavir/ritonavir (non-linear mixed effects modelling of plasma concentrations); assay type: in vivo, human; conditions: for Vc/F, apparent volume of distribution of the central compartment, population estimate [RSE %] / CL/F, apparent elimination clearance, population estimate [RSE %]: HIV-infected adults, oral artemether-lumefantrine, plasma; for CL/F, apparent elimination clearance, population estimate [RSE %]: parent fully converted to metabolite; for exposure: nevirapine or lopinavir/ritonavir (all three antiretroviral drugs); for LOPCL/F, effect on elimination clearance by concomitant treatment with lopinavir/ritonavir: concomitant lopinavir/ritonavir 400/100 mg, positive = increase
Excerpt: Study 1 was a parallel group study in HIV-infected patients. Inclusion criteria were age >18 years, informed written consent and a confirmed HIV diagnosis. Exclusion criteria were anaemia (haemoglobin levels below 8 g dl^-1), viral loads above 400 counts ml^-1, malaria parasitaemia, abnormal liver or renal function, pregnancy, the use of substances which inhibit or induce CYP enzymes or P-glycoprotein, use of herbal medicines, prolonged QT interval, or any intercurrent illness. Ethics approval was received from the Uganda National HIV/AIDS Research Committee (ARC 056) and the Uganda National Council of Science and Technology (HS 195) and the study was registered with http://ClinicalTrials.gov (NCT 00619944). Study 2 was a three period, crossover study in HIV-infected patients. Inclusion and exclusion criteria were the same as for study 1 (i.e. age >18 years, informed written consent and a confirmed HIV diagnosis) except that there were no restrictions based on viral load, and patients with hypersensitivity to artemisinins, lumefantrine or halofantrine or any history of cardiac disease were excluded from the study. Ethics approval was received from the Uganda National HIV/AIDS Research Committee (ARC 059) and from the Uganda National Council of Science and Technology (HS 196). The study was registered at http://ClinicalTrials.gov (NCT00620438). Patients in the first arm were treated with 400/100 mg of lopinavir/ritonavir (Aluvia®, Abbott Laboratories, Abbott Park, Illinois, USA) and two nucleoside reverse transcriptase inhibitors (zidovudine and didanosine or tenofovir and emtricitabine, regional non-controlled procurement). The drugs were taken twice daily for at least 1 month before the start of the study. Patients in the second arm had not yet started their HIV therapy. At the initiation of the study all patients received a single dose of 80 mg artemether and 480 mg lumefantrine (four tablets) (Coartem®, Novartis Pharma AG, Basel, Switzerland; Batch number: F0660). Venous plasma samples were drawn at 1, 2, 4, 6, 8, 12, 24, 48 and 72 h post-dose. At the start of the study, all patients received a standard treatment of artemether and lumefantrine (80/480 mg twice daily for 3 days; Coartem®). Plasma samples were collected after the last dose at 1, 2, 4, 8, 12, 24, 48, 72, 96 and 120 h post-dosing. […] Patients received HIV treatment alone for 1 month and then were given a standard six dose treatment of artemether and lumefantrine concomitantly. Plasma samples were again collected after the last artemether-lumefantrine dose. Artemether/dihydroartemisinin and lumefantrine were quantified in plasma samples according to previously published methods. Artemether and dihydroartemisinin were measured using solid phase extraction and liquid chromatography coupled with tandem mass spectrometric detection. The total coefficient of variation (%CV) was less than 6% and the lower limit of quantification was set to 1.4 ng ml^-1. Lumefantrine was measured using solid phase extraction followed by liquid chromatography with ultraviolet detection. The total coefficient of variation was below 6% and the lower limit of quantification was set to 25 ng ml^-1. Modelling and simulations were performed in NONMEM v7.12 (Icon Development Solutions, Ellicott City, Maryland, USA). Model discrimination was based on the objective function value (OFV) which is proportional to -2 times the log-likelihood of the data. […]2.6.0 was used to document the modelling process. R v2.14.2 (the R Foundation for Statistical Computing, Vienna, Austria) and the package Xpose v4.3.5 [43] was used to perform model diagnostics. Perl-speaks-NONMEM v3.5.3 was used for automation throughout the modelling process. Data below the limit of quantification were initially omitted or modelled as categorical data (M3-method), if necessary. […]

[4] = HIV-infected adults, oral artemether-lumefantrine, plasma
[5] = concomitant lopinavir/ritonavir
[6] = stated in methods, no reference given

**Q.** What does the source list for `CCCCNCC(O)c1cc(Cl)cc2c1-c1ccc(Cl)cc1/C2=C/c1ccc(Cl)cc1` (centres unmarked) [desbutyl-lumefantrine]?
**A.** CL/F, apparent elimination clearance, population estimate [RSE %] [1, 4]: 489 [5.98] l h^−1; exposure [1, 5]: decreased exposure; LOPCL/F, effect on elimination clearance by concomitant treatment with lopinavir/ritonavir [1]: 392%; LOPCL/F, effect on elimination clearance by concomitant treatment with lopinavir/ritonavir ([1]; listed as Desbutyl-Lumefantrine): 392 [17.6] %; exposure ([1]; concomitant nevirapine, due to lower bioavailability of lumefantrine): decreased

**Q.** Which elimination half-life [2] does the source give for `CCCCN(CCCC)CC(O)c1cc(Cl)cc2c1-c1ccc(Cl)cc1/C2=C/c1ccc(Cl)cc1` (centres unmarked) [lumefantrine] here?
**A.** 2 to 4 days

**Q.** And the “increase of exposure for a 100% dose increase (dose limited absorption, assumed in simulations)” value [2]?
**A.** 70%

**Q.** And the “systemic exposure relative to its metabolite desbutyl-lumefantrine” value [2]?
**A.** 85- to 300 fold

**Q.** What about the terminal half-life [2, 6] of the same compound?
**A.** 79.2 h

**Q.** And the “Q/F, inter-compartment clearance, population estimate [RSE %]” value [1, 4]?
**A.** 2.86 [19.4] l h^−1

**Q.** What about the “VP/F, apparent volume of distribution of the peripheral compartment, population estimate [RSE %]” value [1, 4] of the same compound?
**A.** 111 [9.14] l

**Q.** What about the “Vc/F, apparent volume of distribution of the central compartment, population estimate [RSE %]” value [1, 4] of the same compound?
**A.** 68.9 [27.1] l

**Q.** And the “CL/F, apparent elimination clearance, population estimate [RSE %]” value [1, 4]?
**A.** 4.77 [5.30] l h^−1

**Q.** What about the “EFZCL/F, effect on elimination clearance by concomitant treatment with efavirenz” value [1] of the same compound?
**A.** 72.6%

**Q.** And the “EFZCL/F, effect on elimination clearance by concomitant treatment with efavirenz” value ([1]; listed as Lumefantrine)?
**A.** 72.6 [17.2] %

**Q.** What about the “decrease of elimination clearance” value [1, 5] of the same compound?
**A.** 62%

**Q.** And the “LOPCL/F, effect on elimination clearance by concomitant treatment with lopinavir/ritonavir” value (“LOPCL/F, effect … with lopinavir/ritonavir” below) [1]?
**A.** −62.1 [8.48] %

**Q.** What about the “lowering of relative bioavailability” value ([1]; concomitant nevirapine) of the same compound?
**A.** 25%

**Q.** What about the “MTT, mean transit time of the absorption, population estimate [RSE %]” value ([1]; one transit compartment) of the same compound?
**A.** 6.27 [21.2] h

**Q.** Which terminal half-life [2] does the source give for `CO[C@H]1O[C@@H]2O[C@@]3(C)CC[C@H]4[C@H](C)CC[C@@H]([C@H]1C)[C@@]24OO3` [artemether] here?
**A.** 1.5 to 2.0 h

**Q.** And the “Vc/F, apparent volume of distribution of the central compartment, population estimate [RSE %]” value [3]?
**A.** 1090 [8.69] l

**Q.** And the “CL/F, apparent elimination clearance, population estimate [RSE %]” value [3]?
**A.** 317 [8.25] l h^−1

**Q.** And the “Hill coefficient in the maturation model (auto-induction)” value ([3]; MMAX 1 FIX, MF50 62 FIX, reduced dataset)?
**A.** 0.445 [43.9 ^‡]

**Q.** What about the “decrease of relative bioavailability” value ([3]; concomitant efavirenz) of the same compound?
**A.** 71%

**Q.** And the exposure ([3]; concomitant efavirenz)?
**A.** decreased

**Q.** And the “LOPCL/F, effect … with lopinavir/ritonavir” value [3]?
**A.** 32.8%

**Q.** What about the “LOPCL/F, effect … with lopinavir/ritonavir” value ([3]; listed as Artemether) of the same compound?
**A.** 32.8 [21.5] %

**Q.** What about the “decrease of relative bioavailability” value ([3]; concomitant nevirapine) of the same compound?
**A.** 66%

**Q.** What about the “MTT, mean transit time of the absorption phase, population estimate [RSE %]” value ([3]; three transit compartments) of the same compound?
**A.** 0.970 [6.58] h

**Q.** Which results are given for `C[C@H]1[C@@H](O)O[C@@H]2O[C@@]3(C)CC[C@H]4[C@H](C)CC[C@@H]1[C@@]24OO3` [dihydroartemisinin]?
**A.** half-life [2]: 48 to 126 min; terminal half-life [2, 6]: 1 to 2 h; Vc/F, apparent volume of distribution of the central compartment, population estimate [RSE %] [3]: 14.9 [39.8] l; CL/F, apparent elimination clearance, population estimate [RSE %] [3]: 160 [4.93] l h^−1; exposure ([3]; concomitant efavirenz): decreased; LOPCL/F, effect on elimination clearance by concomitant treatment with lopinavir/ritonavir [3]: 143%; LOPCL/F, effect on elimination clearance by concomitant treatment with lopinavir/ritonavir ([3]; listed as Dihydroartemisinin): 143 [19.7] %; decrease of elimination clearance ([3]; concomitant nevirapine): 44%; NEVCL/F, effect on elimination clearance by concomitant treatment with nevirapine ([3]; concomitant nevirapine 200 mg): −44.5 [14.5] %
